Reference: BindingDB's records for doi:10.1021/jm050224y (Philipps-Universitat Marburg, 2005)

Target: T1, Dimer of Gag-Pol polyprotein [489-587] (Human immunodeficiency virus 1, UniProt P12497)
T1 construct: 489-587
Experiment: Protease Inhibition Assay
Settings: pH 5.5; 25 °C
Description: The inhibition assays were performed by mixing enzyme and fluorogenic substrate in the presence of inhibitor compounds. The hydrolysis of the substrate was recorded as an increase of the fluorescence intensity. Ki values were calculated from the IC50 values taken from a dose-response curve with the fluorescent assay using the equation Ki = (IC50 - [E]/2)/ (1 +[S]/Km), where [E] and [S] are the protease and substrate concentrations, Km is the Michaelis-Menten constant.

Structure (SMILES)	IC50 [µM]	Ki [µM]
CC(C)CCS(=O)(=O)[C@@H](C)C[C@@H](O)[C@H](Cc1cccc(Br)c1)NC(=O)CCS(C)(=O)=O [N-{(1S,2R,4S)-1-(3-bromobenzyl)-2-hydroxy-4-[(3-methylbutyl)sulfonyl]pentyl}-3-(methylsulfonyl)propanamide]	> 40	> 40
O=C(N[C@@H](Cc1cccc(Br)c1)[C@H](O)C[C@H](CCc1ccc(Cl)cc1Cl)S(=O)(=O)c1ccc(F)cc1)[C@H]1CCCO1 [(2R)-N-{(1S,2R,4S)-1-(3-bromobenzyl)-6-(2,4-dichlorophenyl)-4-[(4-fluorophenyl)sulfonyl]-2-hydroxyhexyl}tetrahydrofuran-2-carboxamide]	4.2	
O=C(N[C@H](Cc1cccc(Br)c1)[C@@H](O)C[C@@H](CCc1ccc(Cl)cc1Cl)S(=O)(=O)c1ccc(F)cc1)[C@H]1CCCO1 [(2R)-N-{(1R,2S,4R)-1-(3-bromobenzyl)-6-(2,4-dichlorophenyl)-4-[(4-fluorophenyl)sulfonyl]-2-hydroxyhexyl}tetrahydrofuran-2-carboxamide]	> 40	> 40
